According to US20100152047A1, “Piperazine Compounds Whith a Herbicidal Action” (BASF SE, priority 2007, published 2010):

Legend:
Type in all cases: in vivo
[1] = test system: SETVI (Setaria viridis, green foxtail); assay: greenhouse herbicidal test, post-emergence, SETVI; conditions: post-emergence method, application rate 0.5 kg/ha, scale from 0 to 100
Source text: (§1) The culture containers used were plastic flowerpots containing loamy sand with approximately 3.0% of humus as the substrate. The seeds of the test plants were sown separately for each species.
(§2) For the post-emergence treatment, the test plants were first grown to a height of 3 to 15 cm, depending on the plant habit, and only then treated with the active ingredients which had been suspended or emulsified in water. For this purpose, the test plants were either sown directly and grown in the same containers, or they were first grown separately as seedlings and transplanted into the test containers a few days prior to treatment.
(§3) Depending on the species, the plants were kept at 10-25° C. or 20-35° C. The test period extended over 2 to 4 weeks. During this time, the plants were tended, and their response to the individual treatments was evaluated.
(§4) Evaluation was carried out using a scale from 0 to 100. 100 means no emergence of the plants, or complete destruction of at least the aerial moieties, and 0 means no damage, or normal course of growth. A good herbicidal activity is given at values of at least 70 and a very good herbicidal activity is given at values of at least 85.
(§5) The plants used in the greenhouse experiments belonged to the following species: […]

[2] = test system: AMARE (Amaranthus retoflexus, redroot pigweed); assay: greenhouse herbicidal test, post-emergence, AMARE; conditions: post-emergence method, application rate 0.5 kg/ha, scale from 0 to 100
Source text: as §1, §2, §3, §4, §5

[3] = test system: CHEAL (Chenopodium album, common lambsquarters); assay: greenhouse herbicidal test, post-emergence, CHEAL; conditions: post-emergence method, application rate 0.5 kg/ha, scale from 0 to 100
Source text: as §1, §2, §3, §4, §5

[4] = test system: GALAP (Galium aparine, catchweed bedstraw); assay: greenhouse herbicidal test, post-emergence, GALAP; conditions: post-emergence method, application rate 0.5 kg/ha, scale from 0 to 100
Source text: as §1, §2, §3, §4, §5

[5] = test system: LOLMU (Lolium multiflorum, Italian ryegrass); assay: greenhouse herbicidal test, post-emergence, LOLMU; conditions: post-emergence method, application rate 0.5 kg/ha, scale from 0 to 100
Source text: as §1, §2, §3, §4, §5

[6] = test system: SETVI (Setaria viridis, green foxtail); assay: greenhouse herbicidal test, pre-emergence, SETVI; conditions: pre-emergence method, application rate 0.5 kg/ha, scale from 0 to 100
Source text: as §1
(§6) For the pre-emergence treatment, the active ingredients, which had been suspended or emulsified in water, were applied directly after sowing by means of finely distributing nozzles. The containers were irrigated gently to promote germination and growth and subsequently covered with transparent plastic hoods until the plants had rooted. This cover caused uniform germination of the test plants, unless this has been impaired by the active ingredients.
as §3, §4, §5

[7] = test system: CHEAL (Chenopodium album, common lambsquarters); assay: greenhouse herbicidal test, pre-emergence, CHEAL; conditions: pre-emergence method, application rate 0.5 kg/ha, scale from 0 to 100
Source text: as §1, §6, §3, §4, §5

[8] = test system: APESV (Apera spica-venti, windgrass); assay: greenhouse herbicidal test, post-emergence, APESV; conditions: post-emergence method, application rate 0.5 kg/ha, scale from 0 to 100
Source text: as §1, §2, §3, §4, §5

Compound	herbicidal activity against SETVI [1]	herbicidal activity against AMARE [2]	herbicidal activity against CHEAL [3]	also measured
CN1C(=O)C(C)(Cc2ccccc2)N(C)C(=O)C1=Cc1c(F)cccc1C#N (racemic) [Example 12]	good to very good	good to very good	good to very good	–
CCc1cccc(C#N)c1C=C1C(=O)N(C)C(C)(Cc2ccccc2)C(=O)N1C (racemic) [Example 29]	good to very good	–	–	–
CN1C(=O)C(C)(Cc2ccc(Cl)cc2)N(C)C(=O)C1=Cc1ccccc1C#N (racemic) [Example 137]	–	–	–	herbicidal activity against GALAP [4]: good (A good herbicidal activity is given at values of at least 70)
CN1C(=O)C(C)(Cc2ccccc2)N(C)C(=O)C1=Cc1ccccc1Br (racemic) [Example 10]	good to very good	–	–	herbicidal activity against LOLMU [5]: good (A good herbicidal activity is given at values of at least 70)
CN1C(=O)C(C)(Cc2ccccc2)N(C)C(=O)C1=Cc1c(Cl)cccc1Br (racemic) [Example 11]	good to very good	good to very good	good to very good	–
CN1C(=O)C(C)(Cc2ccccc2)N(C)C(=O)C1=Cc1ccccc1[N+](=O)[O-] (mixture of isomers) [Example 26]	good to very good	good to very good	–	–
CN1C(=O)C(C)(Cc2ccccc2)N(C)C(=O)C1=Cc1c(Cl)cccc1C#N (racemic) [Example 13]	good to very good	good to very good	good to very good	–
CN1C(=O)C(C)(Cc2ccccc2)NC(=O)C1=Cc1ccccc1[N+](=O)[O-] (racemic) [Example 44]	good to very good	good to very good	–	–
Cc1cccc(C#N)c1C=C1C(=O)N(C)C(C)(Cc2ccccc2)C(=O)N1C (racemic) [Example 16]	good to very good	good to very good	good to very good	–
CC(C)C1(Cc2ccccc2)C(=O)N(C)C(=Cc2ccccc2C#N)C(=O)N1C (racemic) [Example 24]	–	good to very good	–	–
Cc1cccc([N+](=O)[O-])c1C=C1C(=O)N(C)C(C)(Cc2ccccc2)C(=O)N1C (racemic) [Example 56]	good to very good	good to very good	–	–
CCN1C(=O)C(=Cc2ccccc2[N+](=O)[O-])N(C)C(=O)C1(C)Cc1ccccc1 (racemic) [Example 47]	good to very good	good to very good	–	–
CN1C(=O)C(C)(Cc2ccccc2)NC(=O)C1=Cc1ccccc1C#N (racemic) [Example 39]	good to very good	good to very good	good to very good	–
CN1C(=O)C(C)(Cc2ccc(F)cc2)N(C)C(=O)C1=Cc1ccccc1C#N (racemic) [Example 138]	good to very good	good to very good	–	–
CN1C(=O)C(CO)(Cc2ccccc2)N(C)C(=O)C1=Cc1ccccc1C#N (racemic) [Example 25]	good to very good	–	good to very good	herbicidal activity against SETVI [6]: good (A good herbicidal activity is given at values of at least 70); herbicidal activity against CHEAL [7]: good (A good herbicidal activity is given at values of at least 70)
COc1cccc(C#N)c1C=C1C(=O)N(C)C(C)(Cc2ccccc2)C(=O)N1C (racemic) [Example 14]	good to very good	–	good to very good	–
COc1cccc(Br)c1C=C1C(=O)N(C)C(C)(Cc2ccccc2)C(=O)N1C (racemic) [Example 43]	–	good to very good	–	herbicidal activity against APESV [8]: good (A good herbicidal activity is given at values of at least 70)
CCC1(Cc2ccccc2)C(=O)N(C)C(=Cc2ccccc2C#N)C(=O)N1C (stereo not shown) [Example 3, 2-(5-Benzyl-5-ethyl-1,4-dimethyl-3,6-dioxopiperazin-2-ylidenemethyl)-benzonitrile]	–	good to very good	good to very good	–
CN1C(=O)C(C)(Cc2ccccc2)N(C)C(=O)C1=Cc1ccccc1C#N (racemic) [Example 7]	good to very good	good to very good	good to very good	–
CN1C(=O)C(C)(Cc2ccccc2)N(C)C(=O)C1=Cc1c(C#N)ccc(F)c1F (racemic) [Example 18]	good to very good	good to very good	good to very good	–
